# Source: patent publication US12454529B2, “Piperazine cyclic ureas” (SIRONAX LTD., priority 2020, dated 2025)
# System: HT-29 cells
# Assay: HT-29 cell necrosis/necroptosis inhibition (TNF-α + SMAC mimetic + zVAD-FMK; CellTiter-Glo cell viability)
# Type: cell-based
# Conditions: Homo sapiens, HT-29, 20 h, read-out: EC50 (Cell activity; Necrosis/Necroptosis Inhibitory Activity, Compounds 1-142)
# Method in brief: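 Necroptosis was driven by TNF-α 10 ng/ml plus SMAC mimetic 6 μM and zVAD-FMK 10 μM in serum-free medium, with compounds as a 10-point threefold titration. After 20 h at 37 °C, ATP-based luminescence was read; EC50 values are geometric means of duplicate curves.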
row,Compound,EC50
1,"CC(=O)Nc1c(C)nn(-c2nc(N3CCN(C(=O)N4N=CC[C@H]4c4cc(F)cc(C#N)c4)CC3)ncc2F)c1C [Compound 142, (S)—N-(1-(2-(4-(5-(3-cyano-5-fluorophenyl)-4,5-dihydro-1H-pyrazole-1-carbonyl)piperazin-1-yl)-5-fluoropyrimidin-4-yl)-3,5-dimethyl-1H-pyrazol-4-yl)acetamide]",0.1 to 100 nM

# Same assay, conditions: Homo sapiens, HT-29, 20 h, read-out: EC50 (Cell activity; Necrosis/Necroptosis Inhibitory Activity, Compounds 143-323)
row,Compound,EC50
1,"CC(=O)N1Cc2c(-c3nc(N4CCN(C(=O)N5N=CC[C@H]5c5cc(F)cc(C#N)c5)CC4)ncc3F)nn(C)c2C1 [Compound 152, (S)-3-(1-(4-(4-(5-acetyl-1-methyl-1,4,5,6-tetrahydropyrrolo[3,4-c]pyrazol-3-yl)-5-fluoropyrimidin-2-yl)piperazine-1-carbonyl)-4,5-dihydro-1H-pyrazol-5-yl)-5-fluorobenzonitrile]",1000 to 10000 nM

# Same assay, conditions: Homo sapiens; HT-29 cells, TNF-α 10 ng/ml + SMAC mimetic 6 μM + zVAD-FMK 10 μM, 20 hours; geometric mean, 10 points in duplicate; read-out: EC50 (Cell activity; Necrosis/Necroptosis Inhibitory Activity, Compounds 1-142)
row,Compound,EC50
1,"Cc1noc(C)c1-c1nc(N2CCN(C(=O)N3N=CC[C@H]3c3cc(F)cc(F)c3)CC2)ncc1F [Compound 108, (S)-(5-(3,5-difluorophenyl)-4,5-dihydro-1H-pyrazol-1-yl)(4-(4-(3,5-dimethylisoxazol-4-yl)-5-fluoropyrimidin-2-yl)piperazin-1-yl)methanone]",0.1 to 100 nM
2,"Cc1cc(O)n(-c2nc(N3CCN(C(=O)N4N=CC[C@H]4c4cc(F)cc(C#N)c4)CC3)ncc2F)n1 [Compound 141, (S)-3-fluoro-5-(1-(4-(5-fluoro-4-(5-hydroxy-3-methyl-1H-pyrazol-1-yl)pyrimidin-2-yl)piperazine-1-carbonyl)-4,5-dihydro-1H-pyrazol-5-yl)benzonitrile]",0.1 to 100 nM
3,"Cc1ncc(-c2nc(N3CCN(C(=O)N4N=CC[C@H]4c4cc(F)cc(C#N)c4)CC3)ncc2F)s1 [Compound 57, (S)-3-fluoro-5-(1-(4-(5-fluoro-4-(2-methylthiazol-5-yl)pyrimidin-2-yl)piperazine-1-carbonyl)-4,5-dihydro-1H-pyrazol-5-yl)benzonitrile]",0.1 to 100 nM
4,"Cc1nn(CC2CC2)c(C)c1-c1nc(N2CCN(C(=O)N3N=CC[C@H]3c3cc(F)cc(F)c3)CC2)ncc1F [Compound 121, (S)-(4-(4-(1-(cyclopropylmethyl)-3,5-dimethyl-1H-pyrazol-4-yl)fluoropyrimidin-2-yl)piperazin-1-yl)(5-(3,5-difluorophenyl)-4,5-dihydro-1H-pyrazol-1-yl)methanone]",0.1 to 100 nM
5,"NC(=O)Cn1cc(-c2nc(N3CCN(C(=O)N4N=CC[C@H]4c4cc(F)cc(F)c4)CC3)ncc2F)cn1 [Compound 53, (S)-2-(4-(2-(4-(5-(3,5-difluorophenyl)-4,5-dihydro-1H-pyrazole-1-carbonyl)piperazin-1-yl)-5-fluoropyrimidin-4-yl)-1H-pyrazol-1-yl)acetamide]",0.1 to 100 nM
6,"Cc1nn(CC(N)=O)c(C)c1-c1nc(N2CCN(C(=O)N3N=CC[C@H]3c3cc(F)cc(F)c3)CC2)ncc1F [Compound 119, (S)-2-(4-(2-(4-(5-(3,5-difluorophenyl)-4,5-dihydro-1H-pyrazole-1-carbonyl)piperazin-1-yl)-5-fluoropyrimidin-4-yl)-3,5-dimethyl-1H-pyrazol-1-yl)acetamide]",0.1 to 100 nM
7,"Cc1nn(CC(N)=O)nc1-c1nc(N2CCN(C(=O)N3N=CC[C@H]3c3cc(F)cc(F)c3)CC2)ncc1F [Compound 32, (S)-2-(4-(2-(4-(5-(3,5-difluorophenyl)-4,5-dihydro-1H-pyrazole-1-carbonyl)piperazin-1-yl)-5-fluoropyrimidin-4-yl)-5-methyl-2H-1,2,3-triazol-2-yl)acetamide]",0.1 to 100 nM
8,"NC(=O)c1cnn(-c2nc(N3CCN(C(=O)N4N=CC[C@H]4c4cccc(F)c4)CC3)ncc2F)c1 [Compound 110, (S)-1-(5-fluoro-2-(4-(5-(3-fluorophenyl)-4,5-dihydro-1H-pyrazole-1-carbonyl)piperazin-1-yl)pyrimidin-4-yl)-1H-pyrazole-4-carboxamide]",0.1 to 100 nM
9,"Cc1[nH]nnc1-c1nc(N2CCN(C(=O)N3N=CC[C@H]3c3cc(F)cc(F)c3)CC2)ncc1F [Compound 30, (S)-(5-(3,5-difluorophenyl)-4,5-dihydro-1H-pyrazol-1-yl)(4-(5-fluoro-4-(5-methyl-1H-1,2,3-triazol-4-yl)pyrimidin-2-yl)piperazin-1-yl)methanone]",0.1 to 100 nM
10,"O=C(N1CCN(c2nccc(-n3nnnc3C(F)(F)F)n2)CC1)N1N=CC[C@H]1c1ccccc1 [Compound 104, (S)-(5-phenyl-4,5-dihydro-1H-pyrazol-1-yl)(4-(4-(5-(trifluoromethyl)-1H-tetrazol-1-yl)pyrimidin-2-yl)piperazin-1-yl)methanone]",0.1 to 100 nM
11,"Cc1nn(CC(N)=O)nc1-c1nc(N2CCN(C(=O)N3N=CC[C@H]3c3cc(F)cc(C#N)c3)CC2)ncc1F [Compound 78, (S)-2-(4-(2-(4-(5-(3-cyano-5-fluorophenyl)-4,5-dihydro-1H-pyrazole-1-carbonyl)piperazin-1-yl)-5-fluoropyrimidin-4-yl)-5-methyl-2H-1,2,3-triazol-2-yl)acetamide]",0.1 to 100 nM

# Same assay, conditions: Homo sapiens; HT-29 cells, TNF-α 10 ng/ml + SMAC mimetic 6 μM + zVAD-FMK 10 μM, 20 hours; geometric mean, 10 points in duplicate; read-out: EC50 (Cell activity; Necrosis/Necroptosis Inhibitory Activity, Compounds 143-323)
row,Compound,EC50
1,Cn1ncnc1-c1nc(N2CCN(C(=O)N3N=CCC3c3ncccc3Cl)CC2)ncc1F (centres unmarked) [Compound 221],0.1 to 100 nM
2,"COc1cnc(N2CCN(C(=O)N3N=CC[C@H]3c3cc(F)cc(C#N)c3)CC2)nc1-c1ncnn1C [Compound 150, (S)-3-fluoro-5-(1-(4-(5-methoxy-4-(1-methyl-1H-1,2,4-triazol-5-yl)pyrimidin-2-yl)piperazine-1-carbonyl)-4,5-dihydro-1H-pyrazol-5-yl)benzonitrile]",0.1 to 100 nM
3,"Cc1nn(-c2nc(N3CCN(C(=O)N4N=CC[C@H]4c4cc(F)cc(C#N)c4)CC3)ncc2F)c(C)c1C(N)=O [Compound 277, (S)-1-(2-(4-(5-(3-cyano-5-fluorophenyl)-4,5-dihydro-1H-pyrazole-1-carbonyl)piperazin-1-yl)-5-fluoropyrimidin-4-yl)-3,5-dimethyl-1H-pyrazole carboxamide]",0.1 to 100 nM
4,"O=C(N1CCN(c2ncc(F)c(-n3cnc(C(F)(F)F)n3)n2)CC1)N1N=CC[C@H]1c1cncc(F)c1 [Compound 314, (S)-(4-(5-fluoro-4-(3-(trifluoromethyl)-1H-1,2,4-triazol-1-yl)pyrimidin-2-yl)piperazin-1-yl)(5-(5-fluoropyridin-3-yl)-4,5-dihydro-1H-pyrazol-1-yl)methanone]",0.1 to 100 nM
5,"Cc1nc(C(F)(F)F)nn1-c1ccnc(N2CCN(C(=O)N3N=CC[C@H]3c3cc(F)cc(C#N)c3)CC2)n1 [Compound 147, (S)-3-fluoro-5-(1-(4-(4-(5-methyl-3-(trifluoromethyl)-1H-1,2,4-triazol-1-yl)pyrimidin-2-yl)piperazine-1-carbonyl)-4,5-dihydro-1H-pyrazol-5-yl)benzonitrile]",0.1 to 100 nM
6,"Cc1nc(C)n(-c2nc(N3CCN(C(=O)N4N=CCC4c4cscn4)CC3)ncc2F)n1 (centres unmarked) [Compound 212, (4-(4-(3,5-dimethyl-1H-1,2,4-triazol-1-yl)-5-fluoropyrimidin-2-yl)piperazin-1-yl)(5-(thiazol-4-yl)-4,5-dihydro-1H-pyrazol-1-yl)methanone]",100 to 1000 nM
7,"Cc1nc(C)n(-c2nc(N3CCN(C(=O)N4N=CC[C@H]4c4cc(F)cc(F)c4F)CC3)ncc2F)n1 [Compound 264, (S)-(4-(4-(3,5-dimethyl-1H-1,2,4-triazol-1-yl)-5-fluoropyrimidin-2-yl)piperazin-1-yl)(5-(2,3,5-trifluorophenyl)-4,5-dihydro-1H-pyrazol-1-yl)methanone]",0.1 to 100 nM
8,"Cc1nnc(-c2nc(N3CCN(C(=O)N4N=CC[C@H]4c4cc(F)cc(C#N)c4)CC3)ncc2F)o1 [Compound 188, (S)-3-fluoro-5-(1-(4-(5-fluoro-4-(5-methyl-1,3,4-oxadiazol-2-yl)pyrimidin-2-yl)piperazine-1-carbonyl)-4,5-dihydro-1H-pyrazol-5-yl)benzonitrile]",0.1 to 100 nM
9,"Cc1cnc([C@@H]2CC=NN2C(=O)N2CCN(c3ncc(F)c(-c4ncnn4C)n3)CC2)s1 [Compound 318, (S)-(4-(5-fluoro-4-(1-methyl-1H-1,2,4-triazol-5-yl)pyrimidin-2-yl)piperazin-1-yl)(5-(5-methylthiazol-2-yl)-4,5-dihydro-1H-pyrazol-1-yl)methanone]",0.1 to 100 nM
10,"[2H]C1(c2cc(F)cc(F)c2)CC=NN1C(=O)N1CCN(c2ncc(F)c(-n3nc(C)nc3C)n2)CC1 (centres unmarked) [Compound 262, (5-(3,5-difluorophenyl)-4,5-dihydro-1H-pyrazol-1-yl-5-d)(4-(4-(3,5-dimethyl-1H-1,2,4-triazol-1-yl)-5-fluoropyrimidin-2-yl)piperazin-1-yl)methanone]",0.1 to 100 nM
11,"Cn1ncnc1-c1ccc(F)c(N2CCN(C(=O)N3N=CC[C@H]3c3cc(F)cc(F)c3)CC2)n1 [Compound 175, (S)-(5-(3,5-difluorophenyl)-4,5-dihydro-1H-pyrazol-1-yl)(4-(3-fluoro-6-(1-methyl-1H-1,2,4-triazol-5-yl)pyridin-2-yl)piperazin-1-yl)methanone]",0.1 to 100 nM
12,"Cc1nn(-c2cc(N3CCN(C(=O)N4N=CC[C@H]4c4cc(F)cc(F)c4)CC3)ncn2)c(C)c1C#N [Compound 280, (S)-1-(6-(4-(5-(3,5-difluorophenyl)-4,5-dihydro-1H-pyrazole-1-carbonyl)piperazin-1-yl)pyrimidin-4-yl)-3,5-dimethyl-1H-pyrazole-4-carbonitrile]",0.1 to 100 nM
13,"N#Cc1cc(F)cc([C@@H]2CC=NN2C(=O)N2CCN(c3ncc(F)c(-n4cnc(C(F)(F)F)n4)n3)CC2)c1 [Compound 306, (S)-3-fluoro-5-(1-(4-(5-fluoro-4-(3-(trifluoromethyl)-1H-1,2,4-triazol-1-yl)pyrimidin-2-yl)piperazine-1-carbonyl)-4,5-dihydro-1H-pyrazol-5-yl)benzonitrile]",0.1 to 100 nM
